Measured values as given in PubChem BioAssay AID1918948 (Molecular Pharmacology Branch, DTP, NCI, 2023).

Tested on: K-562 leukemia growth, % test/control
Assay: Anticancer human tumor K-562 cell line growth inhibition;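 note: spheroids exposed to compounds for 7 days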;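 for viability, T/C: 100% = DMSO vehicle wells and lower values mean fewer viable cells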
Conditions: spheroids with HUVEC and MSC; for IC50: curve of first compound; for viability, T/C: stronger effect = lower value
Description: Multicellular complex tumor spheroid response to LSD1 Inhibitor Iadademstat in combination with a variety of drugs and investigational agents in selected tumor cell lines
The current study was undertaken to assess response to LSD1 inhibitors in combination with standard-of-care drugs and investigational agents in solid tumor complex spheroid models as well as in the K-562 leukemia. Complex spheroids include a stromal component modeled by human endothelial cells (HUVEC) and fibroblasts modeled by human mesenchymal stem cells (MSCs). The concentration ranges selected for each drug and investigational agent were based upon clinically achievable concentrations if the clinical Cmax of the agent was known.
Compounds. The drugs and investigational agents used in this study are listed on Table 1. All of the agents used, including staurosporine (NSC755774) and gemcitabine (NSC613327), were obtained from the Developmental Therapeutics Program, NCI. FDA-approved anticancer drugs are available from the NCI at http://dtp.nci.nih.gov/branches/dscb/oncology_drugset_explanation.html. Drugs and investigational agents were >95% pure by proton nuclear magnetic resonance (NMR) and liquid chromatography/mass spectrometry (LC/MS). Stock solutions were prepared at 400x in DMSO, stored at -70 degrees C, and diluted in fresh medium prior to their use. The final concentration of DMSO in cell culture wells never exceeded 0.25% (v/v). The FDA-approved anticancer drug set is available from the Developmental Therapeutics Program at https://dtp.cancer.gov/organization/dscb/obtaining/available_plates.htm. All drugs and investigational agents were tested over a range starting from a high concentration at or near the clinical Cmax and decreasing in half-log increments. If the clinical Cmax for an agent had not been determined, the highest concentration tested was 10 microM.
Cell Lines. The patient-derived cancer cell (PDC) lines: 292921-168-R-J2-PDC, K24384-001-R-PDC, and 521955-158-R2-J5-PDC pancreatic carcinomas, 556581-035-R-J1 ovarian carcinoma, 324938-238-R-J1-PDC, 855422-203-R-J1-PDC and 883617-216-R-J1-PDC urothelial bladder carcinomas, 743489-274-T-PDC renal cell carcinoma, 138582-R-J1 Merkel cell tumor, K60290-347-R-J1 and K57222-313-R-J1-PDC glioblastomas, 653999-131-R-J2-PDC, LG0703-F948-PDC, and 349418-098-R-PDC non-small cell lung carcinomas, 885512-296-R-J2-PDC, 171881-019-R-J1-PDC breast carcinomas and 186277-243-T-J2-PDC and 233499-124-R-J2-PDC colon carcinomas were obtained from the NCI Patient-Derived Models Repository (PDMR, https://pdmr.cancer.gov). The established cell lines NCI/ADR-RES (RRID:CVCL_14520 and OVCAR-5 (RRID:CVCL_1628) ovarian carcinomas, 786-O (RRID:CVCL_1051) and A498 (RRID:CVCL_A498) renal cell carcinoma, NCI-H211 (ATCC, cat. CRL-5824; RRID:CVCL_1529), NCI-H196 (ATCC, cat. CRL-5823, RRID:CVCL_1509), SW 1271 (ATCC, cat. CRL-2177, RRID:CVCL_1716) and NCI-H1876 (ATCC, cat. CRL-5902, RRID:CVCL_1503) small cell lung carcinomas, MDA-MB-231 (RRID:CVCL_0062) and MDA-MB-468 (RRID:CVCL_0419)breast carcinomas (10-12). Pooled donor human umbilical vein endothelial cells (HUVEC, Lonza, cat. CC-2519) and human mesenchymal stem cells (hMSC, Lonza, cat. PT-2501) were purchased from Lonza (Walkersville, MD).
Cell Culture. All cells were maintained in an incubator at 37 degrees C and 5% CO2 with 95% humidity. The PDC lines were cultured according to standard operating procedures established by the NCI PDMR (https://pdmr.cancer.gov). Briefly all PDCs were thawed and cultured in Matrigel-coated flasks prepared with a working solution of 1X Ham's F-12 nutrient mix, without supplementation (Invitrogen, Waltham, MA, cat. 11765054), 100 U/mL penicillin-streptomycin (Invitrogen, cat. 15140122), and 2.5% Matrigel (Corning Inc., Corning, NY, cat. 354248) for the first three passages. […]

Nc1ncn(C2CC(O)C(CO)O2)c(=O)n1 (stereo not given) + NC1CC1c1ccc(-c2cccc(O)c2)cc1 was tested, and the IC50 (second compound 0.1 µM) was > 1000 nM, the IC50 (second compound 0.316 µM) was > 1000 nM and the IC50 (second compound 1 µM) was 988 nM. The IC50 (second compound 3.16 µM) was 772 nM, the IC50 (second compound 10 µM) was 166 nM and the viability, T/C (second compound 0.1 µM, first compound 0.00316 µM) was 106%. The viability, T/C (second compound 0.1 µM, first compound 0.01 µM) was 104%, the viability, T/C (second compound 0.1 µM, first compound 0.0316 µM) was 99.4% and the viability, T/C (second compound 0.1 µM, first compound 0.1 µM) was 89.7%. The viability, T/C (second compound 0.1 µM, first compound 0.316 µM) was 72.8%, the viability, T/C (second compound 0.1 µM, first compound 1 µM) was 65.1% and the viability, T/C (second compound 0.316 µM, first compound 0.00316 µM) was 101%. It also gave a viability, T/C (second compound 0.316 µM, first compound 0.01 µM) of 104%, a viability, T/C (second compound 0.316 µM, first compound 0.0316 µM) of 97.5% and a viability, T/C (second compound 0.316 µM, first compound 0.1 µM) of 86.1%. It also gave a viability, T/C (second compound 0.316 µM, first compound 0.316 µM) of 67.2%, a viability, T/C (second compound 0.316 µM, first compound 1 µM) of 55.6% and a viability, T/C (second compound 1 µM, first compound 0.00316 µM) of 101%. It also gave a viability, T/C (second compound 1 µM, first compound 0.01 µM) of 102%, a viability, T/C (second compound 1 µM, first compound 0.0316 µM) of 95.9% and a viability, T/C (second compound 1 µM, first compound 0.1 µM) of 85%. For the same compound, the viability, T/C (second compound 1 µM, first compound 0.316 µM) was 62.5%, the viability, T/C (second compound 1 µM, first compound 1 µM) was 50% and the viability, T/C (second compound 3.16 µM, first compound 0.00316 µM) was 102%. The viability, T/C (second compound 3.16 µM, first compound 0.01 µM) was 97.9%, the viability, T/C (second compound 3.16 µM, first compound 0.0316 µM) was 95.9% and the viability, T/C (second compound 3.16 µM, first compound 0.1 µM) was 80.4%. The viability, T/C (second compound 3.16 µM, first compound 0.316 µM) was 58.4%, the viability, T/C (second compound 3.16 µM, first compound 1 µM) was 47.6% and the viability, T/C (second compound 10 µM, first compound 0.00316 µM) was 96.9%. For the same compound, the viability, T/C (second compound 10 µM, first compound 0.01 µM) was 89.1%, the viability, T/C (second compound 10 µM, first compound 0.0316 µM) was 77.4% and the viability, T/C (second compound 10 µM, first compound 0.1 µM) was 58.7%. For the same compound, the viability, T/C (second compound 10 µM, first compound 0.316 µM) was 38.8% and the viability, T/C (second compound 10 µM, first compound 1 µM) was 31.9%.
